Data as given in patent US6214881A, “IL-8 receptor antagonists” (SmithKline Beecham Corporation, priority 1999, dated 2001).

System: recombinant human IL-8 type a and b receptors
Test: Receptor binding assays ([125I] IL-8 / 125I Gro-a, CHO membranes)
Settings: 125I IL-8 (0.25 nM) or 125I Gro-a; IL-8Ra or IL-8Rb membranes from Chinese hamster ovary cells; receptor subtype not specified for the result
Method: The IL-8, and Gro-a chemokine inhibitiory effects of compounds of the present invention were determined by the following in vitro assay:
[^125 I] IL-8 (human recombinant) is obtained from Amersham Corp., Arlington Heights, Ill., with specific activity 2000 Ci/mmol. Gro-a is obtained from NEN-New England Nuclear. All other chemicals are of analytical grade. High levels of recombinant human IL-8 type a and b receptors are individually expressed in Chinese hamster ovary cells as described previously (Holmes, et al., Science, 1991, 253, 1278). The Chinese hamster ovary membranes are homogenized according to a previously described protocol (Haour. et al., J Biol Chem., 249 pp 2195-2205 (1974)). Except that the homogenization buffer is changed to 10 mM Tris-HCL, 1 mM MgSO4, 0.5 mM EDTA (ethylene-diaminetetra-acetic acid), 1 mMPMSF (a-toluenesulphonyl fluoride), 0.5 mg/L Leupeptin, pH 7.5. Membrane protein concentration is determined using Pierce Co. micro-assay kit using bovine serum albumin as a standard. All assays are performed in a 96-well micro plate format. Each reaction mixture contains ^125 I IL-8 (0.25 nM) or ^125 I Gro-a and 0.5 μg/mL of IL-8Ra or 1.0 μg/mL of IL-8Rb membranes in 20 mM Bis-Trispropane and 0.4 mM Tris HCl buffers, pH 8.0, containing 1.2 mM MgSO4, 0.1 mM EDTA, mM NaCl and 0.03% CHAPS. […] The filter is then dried and counted on the Betaplate liquid scintillation counter. […]

activity in receptor binding assay (inhibition of IL-8 / Gro-a binding): active
Compound: Cc1ccc(S(=O)(=O)NC(=O)c2cccc(NC(=O)Nc3ccccc3Br)c2)cc1 [Example 1, N-[3-(4-methylphenylsulfonyl)carboxamido]-N'-(2-bromophenyl)urea]
